Assay results as given in patent US10208060B2, “Inhibitors of HIF prolyl hydroxylase” (Merck Sharp & Dohme Corp., priority 2014, dated 2019).

Molecular target: human HIF-PHD2 (Homo sapiens (Human), UniProt Q9GZT9)
Assay: HIF-PHD2 inhibition assay (hydroxylation of HIF-1α peptide, time resolved fluorescence)
Format: biochemical
Conditions: FLAG-tagged full length PHD2; 0.2 μM 2-oxoglutarate, 0.5 μM HIF-1α peptide; 45 minutes at room temperature
Procedure: To each well of a 384-well plate, 1 μL of test compounds in DMSO (final concentration ranging from 0.3 nM to 10 uM) were added into 20 μl of assay buffer (50 mM Tris pH 7.4/0.01% Tween-20/0.1 mg/ml bovine serum albumin/10 μM ferrous sulfate/1 mM sodium ascorbate/20 μg/ml catalase) containing 0.15 μg/ml FLAG-tagged full length PHD2 expressed in and purified from baculovirus-infected Sf9 cells. […] Purif.

Chain of human HIF-PHD2 (Q9GZT9 whole entry): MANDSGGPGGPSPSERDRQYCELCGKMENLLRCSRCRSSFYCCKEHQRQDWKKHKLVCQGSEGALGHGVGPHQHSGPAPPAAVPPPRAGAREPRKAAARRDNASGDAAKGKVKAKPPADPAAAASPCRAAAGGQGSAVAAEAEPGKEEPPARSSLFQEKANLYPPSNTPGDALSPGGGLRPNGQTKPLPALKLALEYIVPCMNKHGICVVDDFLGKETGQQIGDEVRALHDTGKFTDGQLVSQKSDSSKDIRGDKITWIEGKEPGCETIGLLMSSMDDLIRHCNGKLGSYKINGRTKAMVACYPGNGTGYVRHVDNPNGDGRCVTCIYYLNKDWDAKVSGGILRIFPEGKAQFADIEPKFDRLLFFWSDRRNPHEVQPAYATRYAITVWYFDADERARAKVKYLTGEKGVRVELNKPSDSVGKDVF

IC50 [nM]	Compound
10	O=C(O)CNC(=O)c1c(O)c2c(n(-c3ccc(-c4ccc(OC(F)(F)F)cc4)cc3)c1=O)CSC2 [Example 12]
8.8	O=C(O)CNC(=O)c1c(O)c2c(n(-c3ccc(Br)cc3)c1=O)CSC2 [Example 11, 2-(1-(4-Bromophenyl)-4-hydroxy-2-oxo-1,2,5,7-tetrahydrothieno[3,4-b]pyridine-3-carboxamido)acetic acid]
